Test results taken from patent US6362215B1 (priority 1998, dated 2002).

Key:
laying hens [1] = experiment: Other tests on shell quality of older hens supplied with calcium L-pidolate; type: in vivo; details: between the 60th week and the 72nd week
Excerpt: The decrease in quality of the shell increases between the 55th and 65th week. The hens are generally sacrificed at 68 to 70 weeks. […] As a result, the duration of exploitation of the hen can thus be prolonged so as to improve the profit of raising by reducing the hen/egg cost.

laying hens [2] = experiment: Henhouse test on laying hens, calcium L-pidolate in feedstuff; eggs examined by candling
Excerpt: The downgraded percentage corresponds to the percentage of eggs with cracked shells, which shell having been carefully examined by candling so as to detect any rupture of the shell (cracks, holes, etc.). The percentage of uncracked egg shells was computed from eggs on which no shell rupture was observed by candling.

calcium L-pidolate was tested. Which “decrease in quality of the shell” value (laying hens [1]) did it give?
Its value is “can be stabilized”.

What about the “persistence of improvements in egg color (pure white eggs or chalky appearance) after stopping treatment” value (laying hens [2]; after stopping treatment) of the same substance?
The value was “persisted eight to ten days after stopping treatment”.

And the “percentage of downgraded eggs (eggs with cracked shells)” value (laying hens [2]; day after the day of administration in feedstuff, 19,300 hens, candling)?
Its value is “decrease of the percentage of downgraded eggs”.

And the “effect on quality, in particular mechanical strength of the egg shells, after end of treatment” value (laying hens [2]; day after the end of treatment)?
Its value is “decreased and disappeared completely”.

And the “percentage of downgraded eggs over the test period” value (laying hens [2]; tests of FIG. 1, winter, October-November)?
The value was “maintaining the percentage of downgraded eggs at a substantially constant value”.
